This note sets out measurements from patent publication US20250276999A1, “PEPTIDES FOR PROMOTING HAIR FOLLICLE NEOGENESIS, AND PREVENTION/MITIGATION OF UNTOWARD EFFECTS OF RADIATION TREATMENT” (Trustees of Tufts College, priority 2022, published 2025).

Entries after “also recorded” stand apart in the source; their conditions may differ.

In one assay the test system is hair follicle neogenesis. Briefly: Patch assay, hair follicle neogenesis in vivo. The note with it: 100 μM peptide vs scrambled peptide, N=3 patches (FIG. 2). Further details: species or system nu/nu mouse. On the procedure: Next, we used a patch assay to test is TSN peptides can induce hair follicle neogenesis in vivo. Epidermal aggregates were resuspended in DMEM/F12 at 750,000 aggregates/750 μL (1000 aggregates/μL) and spheroids were resuspended in DMEM/F12 at 1400 spheroids/140 μL (10 spheroids/μL). 10 million dermal cells were resuspended in 400 μL DMEM/F12 (25,000 cell/μL or 1.25E6 per 50 μL). […] Using a dissecting microscope the number of hair follicles were counted for each implantation from the mucosal side of the skin (FIG. 2).
Preparation of spheroids: Dermal Papilla (DP) cells were trypsinized, neutralized and counted. […]
Preparation of epidermal Cell aggregates: From 12 neonatal foreskins, the epidermis was separated from the dermis using dispase incubation overnight. […] The final pellet was resuspended in 6 mL DMEM/F12 (for 12 skins) and the aggregates were counted using hemocytometer. […]

A further assay has as its system X-ray irradiated mice. Briefly: Radiation dermatitis murine model (thoracic X-ray irradiation). It counts as in vivo, C57BL/6 mice.
The mark [1] stands for this setting: 16.5 Gy, s.c. days 2, 7, 10 post-irradiation, TSN6 5 μg/day, HGF 3.3 μg/day, vs vehicle.
Where [2] appears, read: skin 83 days post-irradiation, radiation alone.

Protocol for X-ray irradiated mice: Sham irradiated mice without wounds were used as controls for radiation dermatitis, and treated identically as irradiated mice. Wounded mice, without radiation, were used as controls for combined injury.
Animals were irradiated in the RS2000 small animal irradiator. The RS2000 provides a cone-shaped radiation field with irradiation at 12.39-40.50 cm from the X-ray source. For dose measurements, irradiation was performed with the following settings: 160 kVp, 25 mA, 90 s irradiation time and 0.3 mm Cu beam filtration. The approximate HVL provided by the manufacturer was 0.62 mm Cu. […] A custom lead shield was placed on the floor of the irradiator, with the mouse thoracic region ˜43.75 cm from the X-ray source. Dose measurements were conducted twice to account for set-up error and reproducibility. […] The dose rate was reported for each aperture position 1-4 as an absorbed dose rate to water (ADRW, Gy/min) and the two repeated measurements were averaged.
Mice (12-14 weeks of age) were anesthetized using inhaled anesthesia (isoflurane), and the fur was clipped on the dorsal side of the thoracic region. […] Animals were then anesthetized with injected anesthesia (150 mg/kg ketamine/18 mg/kg xylazine) and placed in Lucite jigs for exposure to 16.5 Gy thoracic irradiation in the RS2000 X-ray irradiator as previously described [19].
TSN6 peptide (5 μg/day in 50 μl sterile saline) or hepatocyte growth factor (HGF; 3.3 μg/day in 50 μl sterile saline) or vehicle (sterile saline, 50 μl) were injected subcutaneously on days 2, 7 and 10 post-irradiation. Injections were made caudal, adjacent to the irradiated or irradiated/wounded area.
Animals were monitored daily for 85 days post-irradiation for both radiation dermatitis and combined injury models. Radiation dermatitis was separately scored for hair loss, erythema, scale, and ulceration. Scoring for erythema, scale and ulceration were previously described: 0=none; 1=minimal; 2=mild; 3=moderate; 4=marked [19]. Because all animals underwent fur clipping prior to irradiation and wounding, scoring for hair loss was determined as failure to regrow hair in the irradiated areas: 0=none; 1=minimal; 2=mild; 3=moderate; 4=marked. Animals were photographed for the measurement of wounds and for dermatitis scoring. […] Weight was measured as an indication of overall health.

For the sequence “HSPDIQLQKGLTFEPIQIK [TSN6, 19 amino acid peptide derived from multimerin-1, Coiled coil domain]”, the “number of hair follicles (hair follicle formation)” value with hair follicle neogenesis is on record as “two-fold increase”. For the same sequence, the “combined scores of radiation skin effects” value in the assay with X-ray irradiated mice (16.5 Gy, TSN6 5 μg/day s.c. days 2, 7, 10 (FIG. 5E)) was “marked reduction”. Further, in the assay with X-ray irradiated mice (setting [1]), the erythema score entry is listed as “mitigated”, the hair loss score entry is “mitigated”, the “radiation dermatitis (overall measures)” value is reported as “mitigated; also recorded: Mitigation of radiation dermatitis” and the scale score entry is “mitigated”. In the assay on X-ray irradiated mice (setting [2]), the “adipose layer in H&E histological sections” value is “preservation of the adipose layer”, the “epidermal thickening in H&E histological sections” value is listed as “reduction of the epidermal thickening” and the “hair follicles within the irradiated area (histology)” value is “restoration of hair follicles”.
